From the supplement of paper PMC13380429

Columns and labels:
Details in all cases: 72 h
Caco-2 [1] = assay: cell viability relative to DMSO; higher = less toxic
Calu-3 [2] = assay: as above
HepG2 [3] = assay: as above
U2OS [4] = assay: as above
Caco-2 [5] = assay: relative viability EC50 (midpoint between 100% and the lowest measured viability); higher = less toxic
Calu-3 [6] = assay: as above
HepG2 [7] = assay: as above
U2OS [8] = assay: as above
Caco-2 [9] = assay: drug sensitivity score (DSS) for viability; higher = more toxic; extreme values may be limits of the assay
Calu-3 [10] = assay: as above
HepG2 [11] = assay: as above
U2OS [12] = assay: as above
Vero E6 [13] = assay: cell viability relative to DMSO; higher = less toxic
Vero E6 [14] = assay: relative viability EC50 (midpoint between 100% and the lowest measured viability); higher = less toxic
Vero E6 [15] = assay: drug sensitivity score (DSS) for viability; higher = more toxic; extreme values may be limits of the assay

| SMILES | cell viability (Caco-2 [1]; 1 nM) [%] | cell viability (Caco-2 [1]; 10 nM) [%] | cell viability (Caco-2 [1]; 100 nM) [%] | cell viability (Caco-2 [1]; 1000 nM) [%] | cell viability (Caco-2 [1]; 10000 nM) [%] | cell viability (Calu-3 [2]; 1 nM) [%] | cell viability (Calu-3 [2]; 10 nM) [%] | cell viability (Calu-3 [2]; 100 nM) [%] | cell viability (Calu-3 [2]; 1000 nM) [%] | cell viability (Calu-3 [2]; 10000 nM) [%] | cell viability (HepG2 [3]; 1 nM) [%] | cell viability (HepG2 [3]; 10 nM) [%] | cell viability (HepG2 [3]; 100 nM) [%] | cell viability (HepG2 [3]; 1000 nM) [%] | cell viability (HepG2 [3]; 10000 nM) [%] | cell viability (U2OS [4]; 1 nM) [%] | cell viability (U2OS [4]; 10 nM) [%] | cell viability (U2OS [4]; 100 nM) [%] | cell viability (U2OS [4]; 1000 nM) [%] | cell viability (U2OS [4]; 10000 nM) [%] | relative viability EC50 (Caco-2 [5]) [µM] | relative viability EC50 (Calu-3 [6]) [µM] | relative viability EC50 (HepG2 [7]) [µM] | relative viability EC50 (U2OS [8]) [µM] | drug sensitivity score (Caco-2 [9]) | drug sensitivity score (Calu-3 [10]) | drug sensitivity score (HepG2 [11]) | drug sensitivity score (U2OS [12]) | cell viability (Vero E6 [13]; 1 nM) [%] | cell viability (Vero E6 [13]; 10 nM) [%] | cell viability (Vero E6 [13]; 100 nM) [%] | cell viability (Vero E6 [13]; 1000 nM) [%] | cell viability (Vero E6 [13]; 10000 nM) [%] | relative viability EC50 (Vero E6 [14]) [µM] | drug sensitivity score (Vero E6 [15]) |
| --- | --- | --- | --- | --- | --- | --- | --- | --- | --- | --- | --- | --- | --- | --- | --- | --- | --- | --- | --- | --- | --- | --- | --- | --- | --- | --- | --- | --- | --- | --- | --- | --- | --- | --- | --- |
| OC(CCCN1CCCCC1)(c1ccccc1)c1ccccc1 [diphenidol] | 90.3 | 93.3 | 90.5 | 102 | 87.8 | 120 | 104 | 97.8 | 106 | 98.6 | 96.1 | 101 | 102 | 109 | 105 | 104 | 98.9 | 103 | 99.5 | 100 | > 10 | > 10 | > 10 | > 10 | 0 | 0 | 0 | 0 |  |  |  |  |  |  |  |
| O=C(COc1ccc(C(=O)c2ccccc2)cc1)NC1CCN(Cc2ccccc2)CC1 [adiporon] | 95.2 | 92.7 | 99 | 91.6 | 91.9 |  |  |  |  |  | 92.1 | 94.3 | 94.8 | 107 | 85.4 | 96.4 | 93.2 | 100 | 98.1 | 95.7 | > 10 |  | > 10 | > 10 | 0 |  | 0 | 0 | 97.1 | 98.2 | 93.8 | 96.9 | 101 | > 10 | 0 |
| COc1ccc(CC2NCCc3c2[nH]c2ccc(C)cc32)c(Cl)c1OC (centres undefined) | 94.8 | 98.2 | 105 | 102 | 87.9 | 101 | 95.9 | 92.9 | 102 | 66.8 | 103 | 90.2 | 108 | 104 | 91.7 | 95.4 | 101 | 98.3 | 101 | 94 | > 10 |  | > 10 | > 10 | 0 | 1.3 | 0 | 0 | 99 | 93.2 | 101 | 89.1 | 76.5 | > 10 | 2.1 |
| CC1(C)CN(C(=O)c2ccc(-c3cccc4nc(NC(=O)C5CC5)nn34)cc2)C1 [solcitinib] | 99.1 | 99.8 | 92.9 | 87.3 | 81.7 | 106 | 94.5 | 102 | 101 | 92.2 | 105 | 112 | 99.6 | 98.4 | 96.6 | 101 | 97.3 | 101 | 97.2 | 96.8 | > 10 | > 10 | > 10 | > 10 | 1.5 | 0 | 0 | 0 |  |  |  |  |  |  |  |
| Cc1ccc(NC(=O)c2ccc(CN3CC[C@H](N(C)C)C3)c(C(F)(F)F)c2)cc1Nc1nccc(-c2cncnc2)n1 [bafetinib] | 97.1 | 108 | 92.9 | 104 | 79 | 98.7 | 107 | 98.8 | 99.9 | 74.8 | 98.4 | 89.2 | 91 | 85.1 | 19.5 | 99.9 | 101 | 103 | 99.4 | 79 | > 10 |  | 1.8 | > 10 | 0.5 | 1 | 6.9 | 0.7 | 96.7 | 98.1 | 96.5 | 99.7 | 76.1 | > 10 | 0.9 |
| COc1c(N2CCNC(C)C2)c(F)cc2c(=O)c(C(=O)O)cn(C3CC3)c12 (centres undefined) [gatifloxacin] | 95.7 | 99.9 | 97.6 | 100 | 96.8 | 101 | 114 | 103 | 103 | 89.4 | 99.1 | 101 | 95.9 | 98.7 | 100 | 102 | 98.5 | 94.7 | 95.2 | 93 | > 10 | > 10 | > 10 | > 10 | 0 | 0 | 0 | 0 |  |  |  |  |  |  |  |
| Oc1c(CN2CCCC2)cc(COCc2ccccc2)c2cccnc12 [UC-112] | 92.2 | 95.9 | 99.1 | 73 | 3.6 | 97.7 | 94.8 | 108 | 107 | 69.5 | 97.5 | 94.5 | 96.2 | 81.6 | 16.6 | 97.6 | 91.1 | 94 | 88.9 | 43.1 | 1.46 |  | 1.66 | 1.76 | 9.4 | 1 | 7.5 | 4.9 | 97.8 | 95.3 | 94 | 51.7 | 6.8 | 0.927 | 10.9 |
| CN1c2ccccc2C(NCCCCCCC(=O)O)c2ccc(Cl)cc2S1(=O)=O (centres undefined) [tianeptine] | 103 | 92.7 | 107 | 94.8 | 92.8 | 100 | 103 | 92.4 | 102 | 102 | 100 | 108 | 96.2 | 108 | 98.6 |  |  |  |  |  | > 10 | > 10 | > 10 |  | 0 | 0 | 0 |  | 104 | 102 | 101 | 94.1 | 88.1 | > 10 | 0.3 |
| C[C@@H]1C/C=C/C=C/C=C/C=C/[C@H](O[C@@H]2O[C@H](C)[C@@H](O)[C@H](N)[C@@H]2O)C[C@@H]2O[C@](O)(C[C@@H](O)C[C@H]3O[C@@H]3/C=C/C(=O)O1)C[C@H](O)[C@H]2C(=O)O [natamycin] | 90.9 | 103 | 95.3 | 97.1 | 107 |  |  |  |  |  | 89.7 | 91.6 | 92.5 | 93.3 | 94.8 | 95.9 | 97.5 | 94.3 | 102 | 108 | > 10 |  | > 10 | > 10 | 0 |  | 0 | 0 | 95.7 | 96.6 | 93.3 | 88.7 | 105 | > 10 | 0 |
| O=C(O)c1cc(Oc2ccc([N+](=O)[O-])cc2)cc(Oc2ccc([N+](=O)[O-])cc2)c1 [compound-w] |  |  |  |  |  | 107 | 104 | 105 | 96.9 | 94.6 | 106 | 98.9 | 102 | 104 | 108 |  |  |  |  |  |  | > 10 | > 10 |  |  | 0 | 0 |  |  |  |  |  |  |  |  |
| O=C(O)c1ccc2cc(-c3ccc(O)c(C45CC6CC(CC(C6)C4)C5)c3)ccc2c1 [CD-437] | 99.4 | 92.8 | 89.4 | 56.2 | 36.8 | 92.7 | 101 | 93.3 | 85.7 | 24.4 | 108 | 95.4 | 105 | 48.8 | 29.3 | 101 | 100 | 98.7 | 84.7 | 9.8 | 0.436 | 1.79 | 0.685 | 1.88 | 9.5 | 6.5 | 9.9 | 7.5 | 107 | 99.1 | 104 | 87.6 | 54.7 |  | 4.2 |
| O=S(=O)(O)c1cc(I)c(O)c2ncccc12 [chiniofon] | 107 | 101 | 95.4 | 104 | 94.8 | 98.2 | 102 | 94.6 | 95.9 | 93.6 | 111 | 102 | 104 | 102 | 99 |  |  |  |  |  | > 10 | > 10 | > 10 |  | 0 | 0 | 0 |  |  |  |  |  |  |  |  |
| O=C(O)COc1cccc(CN(Cc2ccc(-n3cccn3)cc2)S(=O)(=O)c2cccnc2)c1 [taprenepag] | 104 | 102 | 99.2 | 109 | 93.9 | 109 | 95.6 | 94.5 | 92.9 | 91.7 | 92.5 | 104 | 93.8 | 104 | 96.4 |  |  |  |  |  | > 10 | > 10 | > 10 |  | 0 | 0 | 0 |  | 105 | 97.2 | 97.5 | 102 | 104 | > 10 | 0 |
| C[C@H](Nc1cc2c(-c3ccc4c(c3)OCO4)noc2cn1)c1ccccc1 [TC-S-7005] | 96.5 | 105 | 107 | 101 | 97.9 | 106 | 98 | 105 | 97.2 | 107 | 106 | 120 | 100 | 91.6 | 99 |  |  |  |  |  | > 10 | > 10 | > 10 |  | 0 | 0 | 0 |  | 97.4 | 96.2 | 98.8 | 90.5 | 108 | > 10 | 0 |
| CC(C)(C)C(=O)C(Oc1ccc(Cl)cc1)n1ccnc1 (centres undefined) [climbazole] | 108 | 100 | 104 | 97 | 98.2 | 94.5 | 102 | 98.3 | 94.7 | 101 | 113 | 104 | 93.8 | 107 | 102 |  |  |  |  |  | > 10 | > 10 | > 10 |  | 0 | 0 | 0 |  | 96.6 | 101 | 98.1 | 92.2 | 97.1 | > 10 | 0 |
| CCOc1c(N2CCOCC2)cnn(C)c1=O [emorfazone] | 99.1 | 119 | 112 | 127 | 108 |  |  |  |  |  | 106 | 109 | 97.2 | 118 | 108 | 96.4 | 93.1 | 93.8 | 96.1 | 104 | > 10 |  | > 10 | > 10 | 0 |  | 0 | 0 | 95.3 | 93.6 | 98.3 | 96.2 | 99.4 | > 10 | 0 |
| N=C(N)NCCC[C@H](NC(=O)[C@@H]1CCCN1C(=O)[C@@H]1CSSC[C@H](N)C(=O)N[C@@H](Cc2ccc(O)cc2)C(=O)N[C@@H](Cc2ccccc2)C(=O)N[C@@H](CCC(N)=O)C(=O)N[C@@H](CC(N)=O)C(=O)N1)C(=O)NCC(N)=O [vasopressin] | 94.8 | 93 | 88 | 87.5 | 99.2 |  |  |  |  |  | 101 | 98 | 86.3 | 92.3 | 99.5 | 102 | 97.2 | 99.8 | 97.8 | 98 | > 10 |  | > 10 | > 10 | 0 |  | 0 | 0 | 101 | 99.1 | 98.1 | 94 | 99.1 | > 10 | 0 |
